Laboratory results reported in patent publication US11873291B2, “Quinoline cGAS antagonist compounds” (ImmuneSensor Therapeutics, Inc., priority 2020, dated 2024).

What follows are compounds tested against T1, recombinant human cGAS (aa147-522) (Homo sapiens, UniProt Q8N884) (assay: In vitro inhibition assay of cGAS activity (ATP consumption, KinaseGlo Max)). Conditions: Table 2, read-out: cGAS Inhibition Results IC50.
T1 construct: recombinant human cGAS (aa147-522); His6-SUMO (cleaved yes); made in house; host or cells: E. coli BL21/pLys
Assay type: biochemical
Method in brief: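 IC50 came from plotting % ATP consumption against log compound concentration, with leftover ATP detected by KinaseGlo Max chemiluminescence. Reactions ran 20 min at 37 °C with 1.5 μg/mL human cGAS (aa147-522), 6.6 μM ATP, 0.1 mM GTP and 0.01 mg/mL DNA at pH 7.5.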

T1 sequence (Q8N884 147-522): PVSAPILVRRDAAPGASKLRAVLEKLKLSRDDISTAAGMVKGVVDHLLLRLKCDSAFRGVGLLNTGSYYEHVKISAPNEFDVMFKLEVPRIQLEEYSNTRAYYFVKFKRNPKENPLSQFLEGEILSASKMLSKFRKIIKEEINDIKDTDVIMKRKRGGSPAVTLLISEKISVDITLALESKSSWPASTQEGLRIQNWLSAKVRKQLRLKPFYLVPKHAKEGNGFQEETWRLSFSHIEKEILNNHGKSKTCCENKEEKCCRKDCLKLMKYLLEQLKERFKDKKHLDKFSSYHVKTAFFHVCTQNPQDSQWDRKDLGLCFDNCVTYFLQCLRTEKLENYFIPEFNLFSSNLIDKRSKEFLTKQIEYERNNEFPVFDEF

| SMILES | IC50 [µM] |
| --- | --- |
| OCCNc1cc(-c2cn[nH]c2)nc2c(Cl)c(Cl)ccc12 [I-289, 2-((7,8-dichloro-2-(1H-pyrazol-4-yl)quinolin-4-yl)amino)ethan-1-ol] | 2 to 30 |
| C[C@@H](Nc1cc(-c2cn[nH]c2)nc2c(Cl)c(Cl)ccc12)C(=O)OC(C)(C)C [I-290] | 2 to 30 |
| O=C(O)[C@@H]1CCCN1c1cc(-c2cn[nH]c2)nc2c(Cl)c(Cl)ccc12 [I-291] | 2 to 30 |
| O=C(O)[C@H]1CCCN1c1cc(-c2cn[nH]c2)nc2c(Cl)c(Cl)ccc12 [I-292] | 2 to 30 |
| Cc1cc(NCC(=O)O)c2ccc(Cl)c(Cl)c2n1 [I-293] | 2 to 30 |
| O=C(O)CNc1cc(Cl)nc2c(Cl)c(Cl)ccc12 [I-294] | > 30 |
| NS(=O)(=O)CCNc1cc(Cl)c2ccc(Cl)c(Cl)c2n1 [I-295] | > 30 |
| NS(=O)(=O)CCNc1ccc2ccc(Cl)c(Cl)c2n1 [I-296] | > 30 |
| CN(CCO)c1cc(-c2cn[nH]c2)nc2c(Cl)c(Cl)ccc12 [I-297] | > 30 |
| OC[C@@H]1CCCN1c1cc(-c2cn[nH]c2)nc2c(Cl)c(Cl)ccc12 [I-298] | > 30 |
| O=C1CN(c2cc(-c3cn[nH]c3)nc3c(Cl)c(Cl)ccc23)CCN1 [I-299] | > 30 |
| O=C(O)CNc1cc(-c2cn[nH]c2)nc2cc(Cl)cc(Cl)c12 [I-300] | > 30 |
| NS(=O)(=O)CCNc1cc(-c2cn[nH]c2)nc2ccc(C(F)(F)F)cc12 [I-301] | > 30 |
| Cc1cc(N2CCNC(=O)C2)c2ccc(Cl)c(Cl)c2n1 [I-302] | > 30 |
| Cc1cc(N2CCS(=O)(=O)CC2)c2ccc(Cl)c(Cl)c2n1 [I-303] | > 30 |
| Cc1cc(NCCO)c2ccc(Cl)c(Cl)c2n1 [I-304] | > 30 |
| Cc1cc(N2CCCNC(=O)C2)c2ccc(Cl)c(Cl)c2n1 [I-305] | > 30 |
| O=C1CN(c2cc(Cl)nc3c(Cl)c(Cl)ccc23)CCN1 [I-307] | > 30 |
| Cc1cc(NCCS(N)(=O)=O)c2ccc(Cl)c(Cl)c2n1 [I-308] | > 30 |
| Cc1cc(NCCC(=O)O)c2ccc(Cl)c(Cl)c2n1 [I-309] | > 30 |
| Cc1cc(N2CCNC(=O)CC2)c2ccc(Cl)c(Cl)c2n1 [I-310] | > 30 |
| Cc1cc(N2CCCC(O)CC2)c2ccc(Cl)c(Cl)c2n1 (stereo not shown) [I-311] | > 30 |
| Clc1cc(N2CCNCC2)c2ccc(Cl)c(Cl)c2n1 [I-312] | > 30 |
| Cc1cc(NCC(N)=O)c2ccc(Cl)c(Cl)c2n1 [I-313] | > 30 |
| Cc1cc(N(C)CC(N)=O)c2ccc(Cl)c(Cl)c2n1 [I-314] | > 30 |
| Cc1cc(NC2CCNC2=O)c2ccc(Cl)c(Cl)c2n1 (stereo not shown) [I-315] | > 30 |
| Cc1cc(NC2CCCCC2C(=O)O)c2ccc(Cl)c(Cl)c2n1 (stereo not shown) [I-316] | > 30 |

| SMILES | IC50 [µM] |
| --- | --- |
| Cc1cc(N2CCCC(S(N)(=O)=O)C2)c2ccc(Cl)c(Cl)c2n1 (stereo not shown) [I-317] | > 30 |
| NS(=O)(=O)CCNc1cc(NCC(=O)O)c2ccc(Cl)c(Cl)c2n1 [I-318, (7,8-dichloro-2-((2-sulfamoylethyl)amino)quinolin-4-yl)glycine] | > 30 |
| NS(=O)(=O)CCNc1cc(NCC(=O)O)nc2c(Cl)c(Cl)ccc12 [I-319, (7,8-dichloro-4-((2-sulfamoylethyl)amino)quinolin-2-yl)glycine] | > 30 |
| O=C(O)[C@H]1CCCN(c2cc(-n3ccnc3)c3ccc(Cl)cc3n2)C1 [I-331] | 2 to 30 |
| O=C(O)C1CCCCC1Nc1cc(-n2ccnc2)c2ccc(Cl)cc2n1 (stereo not shown) [I-333] | > 30 |
| O=C1CN(c2cc(-n3ccnc3)c3ccc(Cl)c(Cl)c3n2)CC(C(=O)O)N1 (stereo not shown) [I-334] | > 30 |
| O=C(O)CNCCCc1cc(-c2cn[nH]c2)c2ccc(Cl)c(Cl)c2n1 [I-336, (3-(7,8-dichloro-4-(1H-pyrazol-4-yl)quinolin-2-yl)propyl)glycine] | 2 to 30 |
| O=C(O)CNC(=O)[C@H]1CN(c2cc(-c3cn[nH]c3)c3ccc(Cl)c(Cl)c3n2)CCO1 [I-343] | 2 to 30 |
| O=C(Nc1ccccc1)[C@@H]1CCCN1c1cc(-n2ccnc2)c2ccc(Cl)c(Cl)c2n1 [I-348] | > 30 |
| O=C(O)[C@@H]1CCN1c1cc(-c2cn[nH]c2)c2ccc(Cl)c(Cl)c2n1 [I-352] | 2 to 30 |
| Clc1ccc2c(-n3ccnc3)cc(NCc3ccncc3)nc2c1 [I-353, 7-chloro-4-(1H-imidazol-1-yl)-N-(pyridin-4-ylmethyl)quinolin-2-amine] | > 30 |
| Clc1ccc2c(-n3ccnc3)cc(NCCN3CCOCC3)nc2c1 [I-354] | > 30 |
| Clc1ccc2c(-n3ccnc3)cc(Nc3ccccc3)nc2c1 [I-355] | 2 to 30 |
| COC(=O)[C@H]1CCCN(c2cc(-n3ccnc3)c3ccc(Cl)cc3n2)C1 [I-356] | > 30 |
| O=C(O)[C@@H]1CCCN(c2cc(-n3ccnc3)c3ccc(Cl)cc3n2)C1 [I-357] | 2 to 30 |
| CC(C)N(CCN1CCOCC1)c1cc(-c2cn[nH]c2)c2ccc(Cl)c(Cl)c2n1 [I-358] | 2 to 30 |
| O=C(O)[C@H]1CCN1c1cc(-c2cn[nH]c2)c2ccc(Cl)c(Cl)c2n1 [I-359] | 2 to 30 |
| O=C(O)[C@@H]1C[C@@H](Oc2ccccc2)CN1c1cc(-c2cn[nH]c2)c2ccc(Cl)c(Cl)c2n1 [I-361] | 2 to 30 |
| O=C(O)[C@@H]1C[C@@H](Oc2ccccc2)CN1c1cc(-n2ccnc2)c2ccc(Cl)c(Cl)c2n1 [I-362] | > 30 |
| O=C(O)C1CCCN(c2cc(-n3ccnc3)c3ccc(Cl)cc3n2)CC1 (stereo not shown) [I-363] | 2 to 30 |
| COC(CN(C)c1cc(-n2ccnc2)c2ccc(Cl)c(Cl)c2n1)OC [I-364] | 2 to 30 |
| O=C1CC(Nc2cc(-n3ccnc3)c3ccc(Cl)cc3n2)CCN1 (stereo not shown) [I-365] | > 30 |
| O=C(O)C1CCCC(Nc2cc(-n3ccnc3)c3ccc(Cl)cc3n2)C1 (stereo not shown) [I-366] | 2 to 30 |
| O=C1NCCC1Nc1cc(-n2ccnc2)c2ccc(Cl)cc2n1 (stereo not shown) [I-367] | > 30 |
| NS(=O)(=O)CC1CCCCN1c1cc(-n2ccnc2)c2ccc(Cl)c(Cl)c2n1 (stereo not shown) [I-368] | 2 to 30 |
| O=C(O)C1CN(c2cc(-c3cn[nH]c3)c3ccc(Cl)c(Cl)c3n2)CCO1 (stereo not shown) [I-369] | < 2 |
| Clc1ccc2c(-c3cn[nH]c3)cc(N3CCOC(c4nnn[nH]4)C3)nc2c1Cl (stereo not shown) [I-370] | < 2 |

Second part, the compound after the results:

| IC50 [µM] | SMILES |
| --- | --- |
| < 2 | C[C@@H](Nc1cc(-c2cn[nH]c2)nc2c(Cl)c(Cl)ccc12)C(=O)O [I-286] |
| < 2 | O=C(O)CNc1cc(-c2cn[nH]c2)nc2c(Cl)cc(Cl)cc12 [I-288] |
| < 2 | CN(CCC(=O)NCCC(=O)O)c1cc(-c2cn[nH]c2)c2ccc(Cl)c(Cl)c2n1 [I-320] |
| < 2 | CN(CCC(=O)NCC(=O)O)c1cc(-n2ccnc2)c2ccc(Cl)c(Cl)c2n1 [I-321] |
| < 2 | O=C(O)CNC(=O)[C@@H]1CCCN1c1cc(-n2ccnc2)c2ccc(Cl)c(Cl)c2n1 [I-323] |
| < 2 | O=C(O)CCNC(=O)[C@@H]1CCCN1c1cc(-n2ccnc2)c2ccc(Cl)c(Cl)c2n1 [I-324] |
| < 2 | O=C(O)[C@@H]1CCCN1C(=O)C[C@@H]1CCCN1c1cc(-c2cn[nH]c2)c2ccc(Cl)c(Cl)c2n1 [I-325] |
| < 2 | O=C(O)CNC(=O)C[C@@H]1CCCN1c1cc(-c2cn[nH]c2)c2ccc(Cl)c(Cl)c2n1 [I-326] |
| < 2 | O=C(O)[C@@H]1CN(c2cc(-c3cn[nH]c3)c3ccc(Cl)c(Cl)c3n2)CCO1 [I-327] |
| < 2 | O=C(O)[C@H]1CN(c2cc(-c3cn[nH]c3)c3ccc(Cl)c(Cl)c3n2)CCO1 [I-328] |
| < 2 | O=[PH](O)OCC1CCCN(c2cc(-c3cn[nH]c3)c3ccc(Cl)c(Cl)c3n2)C1 (stereo not shown) [I-329] |
| < 2 | O=[PH](O)OCCC1CCCN(c2cc(-c3cn[nH]c3)c3ccc(Cl)c(Cl)c3n2)C1 (stereo not shown) [I-330] |
| < 2 | O=C(O)C1CN(c2cc(-n3ccnc3)c3ccc(Cl)c(Cl)c3n2)CCC1O (stereo not shown) [I-332] |
| < 2 | O=C(O)CCS(=O)(=O)NC[C@@H]1CCCN1c1cc(-n2ccnc2)c2ccc(Cl)c(Cl)c2n1 [I-335] |
| < 2 | CS(=O)(=O)N(CCCc1cc(-c2cn[nH]c2)c2ccc(Cl)c(Cl)c2n1)CC(=O)O [I-337, N-(3-(7,8-dichloro-4-(1H-pyrazol-4-yl)quinolin-2-yl)propyl)-N-(methylsulfonyl) glycine] |
| < 2 | CC(C)[C@H](NC(=O)C[C@@H]1CCCN1c1cc(-n2ccnc2)c2ccc(Cl)c(Cl)c2n1)C(=O)O [I-338] |
| < 2 | O=C(O)C1CCN(C(=O)C[C@@H]2CCCN2c2cc(-n3ccnc3)c3ccc(Cl)c(Cl)c3n2)C1 (stereo partly shown) [I-339] |
| < 2 | CN(CCC(=O)O)C(=O)C[C@@H]1CCCN1c1cc(-n2ccnc2)c2ccc(Cl)c(Cl)c2n1 [I-340] |
| < 2 | O=C(O)CNC(=O)[C@@H]1CN(c2cc(-c3cn[nH]c3)c3ccc(Cl)c(Cl)c3n2)CCO1 [I-341] |
| < 2 | O=C(O)CCNC(=O)[C@@H]1CN(c2cc(-c3cn[nH]c3)c3ccc(Cl)c(Cl)c3n2)CCO1 [I-342] |
| < 2 | O=C(O)CCNC(=O)[C@H]1CN(c2cc(-c3cn[nH]c3)c3ccc(Cl)c(Cl)c3n2)CCO1 [I-344] |
| < 2 | O=C(O)[C@@H]1[C@@H](O)CCN1c1cc(-n2ccnc2)c2ccc(Cl)c(Cl)c2n1 [I-345] |
| < 2 | O=C(CO)N[C@@H]1C[C@@H](C(=O)O)N(c2cc(-n3ccnc3)c3ccc(Cl)c(Cl)c3n2)C1 [I-346] |
| < 2 | CC(=O)N[C@@H]1C[C@@H](C(=O)O)N(c2cc(-n3ccnc3)c3ccc(Cl)c(Cl)c3n2)C1 [I-347] |
| < 2 | O=C(O)[C@@H]1C[C@@H](NS(=O)(=O)c2ccccc2)CN1c1cc(-n2ccnc2)c2ccc(Cl)c(Cl)c2n1 [I-349] |
| < 2 | O=C(N[C@@H]1C[C@@H](C(=O)O)N(c2cc(-n3ccnc3)c3ccc(Cl)c(Cl)c3n2)C1)c1ccccc1 [I-350] |
| < 2 | CS(=O)(=O)N[C@@H]1C[C@@H](C(=O)O)N(c2cc(-n3ccnc3)c3ccc(Cl)c(Cl)c3n2)C1 [I-351] |
| < 2 | O=C(O)[C@@H]1C[C@H](Oc2ccccc2)CN1c1cc(-c2cn[nH]c2)c2ccc(Cl)c(Cl)c2n1 [I-360] |
